In general, half-life refers to how long it takes for the measured level to halve. Low values mean fast loss, high ones slow loss. Usually Cmax stands for the highest concentration seen after dosing. The term Vd denotes a proportionality between amount in the body and measured concentration, not a real space. High values mean extensive tissue distribution, low ones confinement near the circulation. By CL/F is commonly meant clearance divided by bioavailability, as obtained after extravascular dosing. As a reminder, the clearance is a measure of how efficiently the substance is removed, as volume per time. The low end stands for inefficient removal, the high end for efficient removal.

A short description of data set [1]: Half life in mouse at 1 mg/kg, iv administered as single dose. Conditions: in vivo. It counts as ADME, organism-based.
Data set [2] can be described thus: Plasma concentration in mouse at 200 mg/kg, po qd for 14 days measured after 1 hr. In kind it is ADME, organism-based.
Data set [3] can be described thus: Plasma concentration in mouse at 200 mg/kg, po administered as singe dose measured after 1 hr. In kind it is ADME, organism-based.
Data set [4] has as its system Mus musculus. Briefly: Toxicity in mouse at 50 to 200 mg/kg, po administered as single dose up to 48 hrs. In kind it is organism-based. Conditions: in vivo.
Data set [5] concerns Mus musculus. Kind of data set: Toxicity in mouse at 0.5 to 1.5 mg/kg, iv administered as single dose up to 48 hrs. The settings on record: in vivo. It counts as organism-based.
Data set [6] is described as follows: Half life in mouse at 100 mg/kg, po administered as single dose. In kind it is ADME, organism-based. Conditions: in vivo.
In data set [7] the test system is Mus musculus. Kind of data set: Cmax in mouse at 50 to 200 mg/kg, po administered as single dose. In kind it is ADME, organism-based. The settings on record: in vivo.
Data set [8] in a line: Plasma concentration in mouse at 200 mg/kg, po bid for 14 days measured after 1 hr. In kind it is ADME, organism-based.
Data set [9] concerns Mus musculus. Briefly: AUClast in mouse at 50 to 200 mg/kg, po administered as single dose. It counts as ADME, organism-based. The settings on record: in vivo.
Data set [10] in a line: Intrinsic clearance in mouse liver microsomes at 0.8 uM by LC-MS/MS analysis. It counts as ADME, microsome. Conditions: read-out: CLH.
The nature of data set [11]: Half life in mouse liver microsomes at 0.8 uM by LC-MS/MS analysis. It counts as ADME, microsome. A general note: Microsomes from liver hold many membrane-bound enzymes, among them those of drug oxidation.
Data set [12] concerns Mus musculus. Briefly: Toxicity in mouse at 200 mg/kg, po qd for 14 days. In kind it is organism-based. Conditions: in vivo, 336 h.
The test system of data set [13] is Mus musculus. Kind of data set: Volume of distribution in mouse at 0.5 to 1.5 mg/kg, iv administered as single dose. The settings on record: in vivo. It counts as ADME, organism-based.
Data set [14] is described as follows: Clearance in mouse at 100 mg/kg, po administered as single dose. It counts as ADME, organism-based. Conditions: in vivo.
Data set [15] has as its system Mus musculus. Kind of data set: Toxicity in mouse assessed as weight loss at 200 mg/kg, po qd for 3 days. In kind it is organism-based. The settings on record: in vivo, 72 h.
In data set [16] the test system is Mus musculus. Briefly: Toxicity in mouse assessed as weight loss at 200 mg/kg, po qd for 5 to 14 days. Conditions: in vivo. In kind it is organism-based.
Data set [17] deals with Mus musculus. Kind of data set: Toxicity in mouse at 200 mg/kg, po bid for 14 days. In kind it is organism-based. The settings on record: in vivo, 336 h.
The nature of data set [18]: Clearance in mouse at 1 mg/kg, iv administered as single dose. It counts as ADME, organism-based. The settings on record: in vivo.
For data set [19], the system named is Mus musculus. Kind of data set: Oral bioavailability in mouse at 50 mg/kg administered as single dose. It counts as ADME, organism-based. Conditions: in vivo.

As for `CCCCN1CCC(N(Cc2ccccc2)C(=O)Nc2ccc(Cl)c(Cl)c2)CC1`, the half-life in data set [1] is 3.6 h; in [6], 4.2 h. In addition, the concentration at 1 h in data set [2] is 2400 nM; in data set [3], 3000 nM; in [8] it was 3300 nM. Further, the Activity result with Mus musculus [4] is “Non-Toxic”; in the data set with Mus musculus [5], “Non-Toxic”; in the data set with Mus musculus [12] it was “Non-Toxic”; in the data set with Mus musculus [15] it was 3 to 5%; in the data set on Mus musculus [16], “Non-Toxic”; in the data set with Mus musculus [17] it was “Non-Toxic”. The Cmax in the data set on Mus musculus [7] lay in the range of 1500 to 3000 nM. In addition, the AUClast with Mus musculus [9] was in the range of 3.4 to 17.1 µM·h. Besides, in data set [10], the CLint scaled at 0.8 µM was in the range of 25 to 25.6 mL/min/kg. In data set [11], this compound showed a half-life at 0.8 µM of 2.1 to 2.11 h. Moreover, the Vd with Mus musculus [13] was 87.3 to 176 L/kg. Moreover, the CL/F in data set [14] was 367 mL/min/kg. In [18], this compound showed a clearance of 283 mL/min/kg. In the data set on Mus musculus [19], this compound yielded an F of 88%.

The record behind these values is ChEMBL document CHEMBL4020847, “Discovery of an Orally Bioavailable Inhibitor of Defective in Cullin Neddylation 1 (DCN1)-Mediated Cullin Neddylation” (J Med Chem, 2018).
